Some test systems named below: NCI-H522 lung; OVCAR-3 ovarian; PC-3 prostate; ACHN renal; HCC-2998 colon; CCRF-CEM leukemia; SK-MEL-5 melanoma; EKVX NSCLC; NCI-H226 lung; SNB-19 CNS.
Holding throughout (assay): NCI anticancer screen, dose series, 48 h

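Where inhibition never reached the appropriate level, the endpoint shown equals the highest concentration tested. Otherwise, values were interpolated linearly from a five-concentration, 48-hour dose response in 96-well plates. GI50 is the concentration that inhibits growth by half. TGI: total growth inhibition.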

`Fc1cccc(-c2[nH]nc3nc(Nc4cccnc4)sc23)c1`: the GI50 in the experiment with NCI-H522 lung is 13.7 µM; in the experiment with OVCAR-3 ovarian, 1.68 µM; with PC-3 prostate it was 6.34 µM; in the experiment on ACHN renal, 56.6 µM; with HCC-2998 colon it was above 100 µM; with CCRF-CEM leukemia, 3.5 µM. The GI50 was 0.593 µM in the experiment on SK-MEL-5 melanoma, 6.75 µM in the experiment with EKVX NSCLC and above 100 µM in the experiment with NCI-H226 lung. Further, the TGI in the experiment with NCI-H522 lung was above 100 µM; with OVCAR-3 ovarian it was 13.5 µM; in the experiment on PC-3 prostate, above 100 µM; in the experiment on ACHN renal, above 100 µM; in the experiment on HCC-2998 colon, above 100 µM; in the experiment with CCRF-CEM leukemia it was above 100 µM. The TGI is 23.9 µM in the experiment with SK-MEL-5 melanoma, above 100 µM in the experiment on EKVX NSCLC and above 100 µM in the experiment with NCI-H226 lung.
For the compound `Cc1ccc2c(c1)C=CC(C#N)N2C(=O)Oc1ccccc1` (stereo not given), the TGI in the experiment on NCI-H522 lung is 41 µM; in the experiment with PC-3 prostate, 97.9 µM; with ACHN renal, 83.3 µM; with HCC-2998 colon, 31.2 µM; with CCRF-CEM leukemia, 40.1 µM; in the experiment on SNB-19 CNS it was above 100 µM. In addition, the TGI with SK-MEL-5 melanoma was above 100 µM; in the experiment on EKVX NSCLC, 43 µM; in the experiment with NCI-H226 lung, 99.9 µM.
Consider `CC(CN)[C@@H]1CC[C@]2(CO)CC[C@]3(C)[C@H](CC[C@@H]4[C@@]5(C)CCC(N)C(C)(C)[C@@H]5CC[C@]43C)[C@@H]12` (stereo not given in full), for which the GI50 with NCI-H522 lung is 1.81 µM; in the experiment on OVCAR-3 ovarian it was 1.71 µM; in the experiment on PC-3 prostate, 1.74 µM; with ACHN renal, 1.77 µM; in the experiment with HCC-2998 colon, 1.89 µM; in the experiment with SNB-19 CNS it was 1.79 µM. For the same compound, the GI50 in the experiment on SK-MEL-5 melanoma is 1.67 µM; with EKVX NSCLC it was 1.73 µM; with NCI-H226 lung it was 1.95 µM. For the same compound, the TGI in the experiment on NCI-H522 lung stood at 3.45 µM; in the experiment with OVCAR-3 ovarian, 3.24 µM; in the experiment on PC-3 prostate, 3.31 µM; in the experiment with ACHN renal it was 3.22 µM; in the experiment on HCC-2998 colon, 3.66 µM; in the experiment on SNB-19 CNS it was 3.29 µM. Besides, the results for the TGI in the experiment with SK-MEL-5 melanoma, with EKVX NSCLC and in the experiment with NCI-H226 lung were 3.08 µM, 3.51 µM and 4.04 µM, respectively.
For the compound `COc1cc(/C=C2\C[C@H]3[C@@H]4CC=C5C[C@@H](OC(C)=O)CC[C@]5(C)[C@H]4CC[C@]3(C)[C@H]2OC(C)=O)ccc1OCCN1CCCCC1`, the GI50 in the experiment on NCI-H522 lung is above 50 µM; in the experiment with OVCAR-3 ovarian, 18.5 µM; in the experiment with PC-3 prostate it was 24.7 µM; in the experiment on ACHN renal, 9.28 µM; with HCC-2998 colon, 10.9 µM; in the experiment on SNB-19 CNS, 46.2 µM. For the same compound, the figures for the GI50 in the experiment with SK-MEL-5 melanoma, with EKVX NSCLC and in the experiment on NCI-H226 lung were 8.16 µM, above 50 µM and above 50 µM, respectively. The TGI in the experiment on NCI-H522 lung is above 50 µM; with OVCAR-3 ovarian, above 50 µM; in the experiment with PC-3 prostate, above 50 µM; in the experiment on ACHN renal it was 16.8 µM; with HCC-2998 colon, 19.9 µM; in the experiment on SNB-19 CNS, above 50 µM. Also, the TGI was 15.5 µM in the experiment with SK-MEL-5 melanoma, above 50 µM with EKVX NSCLC and above 50 µM in the experiment on NCI-H226 lung.
On to `COc1ccc2nc(-c3cc4c([nH]c5ccccc54)c(-c4ccc(F)c(F)c4)n3)[nH]c2c1`, for which the GI50 was 10 µM in the experiment with NCI-H522 lung; 1.94 µM in the experiment with OVCAR-3 ovarian; 3.25 µM in the experiment on PC-3 prostate; 3.2 µM in the experiment on ACHN renal; 8.96 µM in the experiment on HCC-2998 colon; 2.36 µM with CCRF-CEM leukemia. Further, the GI50 is 8.57 µM in the experiment with SNB-19 CNS, 4.91 µM in the experiment with SK-MEL-5 melanoma and 8.91 µM in the experiment with NCI-H226 lung. Further, the TGI in the experiment with NCI-H522 lung turned out to be 33.8 µM; in the experiment on OVCAR-3 ovarian, 4.12 µM; with PC-3 prostate, 22.5 µM; in the experiment with ACHN renal it was 12.6 µM; with HCC-2998 colon, 25.3 µM; with CCRF-CEM leukemia, 7.8 µM. Further, the TGI with SNB-19 CNS was above 100 µM; in the experiment with SK-MEL-5 melanoma, 21.9 µM; in the experiment with NCI-H226 lung, 42.5 µM.
Consider `Cc1ccc(C2=NN(c3ccc(S(N)(=O)=O)cc3)C(c3cn(-c4ccccc4)nc3-c3ccccc3)C2)cc1` (stereo not given), for which the GI50 in the experiment with NCI-H522 lung was 25.1 µM; with OVCAR-3 ovarian, 14.3 µM; with PC-3 prostate it was 3.32 µM; with ACHN renal it was 9.51 µM; with HCC-2998 colon it was 13.8 µM; in the experiment with CCRF-CEM leukemia, above 100 µM. Also, the GI50 is above 100 µM in the experiment on SNB-19 CNS, 16.6 µM with SK-MEL-5 melanoma and 30.7 µM in the experiment with NCI-H226 lung. Further, the TGI with NCI-H522 lung, in the experiment on OVCAR-3 ovarian, in the experiment with PC-3 prostate, in the experiment with ACHN renal, in the experiment with HCC-2998 colon and in the experiment with CCRF-CEM leukemia was above 100 µM throughout. Besides, the TGI with SNB-19 CNS, in the experiment with SK-MEL-5 melanoma and in the experiment on NCI-H226 lung was above 100 µM in each case.
For the compound `CCOCCOC[C@H]1CCCN(c2ccnc3sc(C(N)=O)c(N)c23)C1`, the GI50 is 10.3 µM with NCI-H522 lung; 23.6 µM with OVCAR-3 ovarian; 21.7 µM in the experiment on PC-3 prostate; 9.95 µM in the experiment with ACHN renal; above 100 µM with HCC-2998 colon; above 100 µM with SNB-19 CNS. Also, the GI50 is 4.05 µM with SK-MEL-5 melanoma, 27.9 µM in the experiment with EKVX NSCLC and above 100 µM with NCI-H226 lung. The TGI in the experiment with NCI-H522 lung, in the experiment with OVCAR-3 ovarian, in the experiment on PC-3 prostate, with ACHN renal, with HCC-2998 colon and in the experiment with SNB-19 CNS was above 100 µM in each case. The TGI in the experiment with SK-MEL-5 melanoma was 36.9 µM; in the experiment with EKVX NSCLC it was above 100 µM; with NCI-H226 lung it was above 100 µM.
With `CSC1(CC(=O)N2CCCCC2)C(=O)Nc2ccccc21` (stereo not given), the TGI in the experiment on OVCAR-3 ovarian, with PC-3 prostate, with ACHN renal, with HCC-2998 colon, in the experiment on SNB-19 CNS and with SK-MEL-5 melanoma was above 100 µM in each case. In addition, the TGI with EKVX NSCLC and in the experiment on NCI-H226 lung was above 100 µM throughout.

These data come from PubChem BioAssay (NCI).
